Entries after “also recorded” stand apart in the source; their conditions may differ. Where two headings read alike, the source gives them in different places.
Key:
P-glycoprotein = conditions: ref not given; cited from earlier work
[1] = ref not given, cited from earlier work
Chagas' disease = conditions: dog, oral 50 mg/kg BID for 14 days; cited from earlier work
CYP3A4 [2] = target: T1, CYP3A4 (Homo sapiens, UniProt P08684); conditions: background statement on 1; cited from earlier work
CYP3A4 [3] = target: T1, CYP3A4; assay: inhibition of CYP3A4 in vitro; format: in vitro ADME
[4] = stability to cultured liver microsomes; format: in vitro ADME; conditions: in words
T. cruzi parasites = conditions: cited from earlier work
MDCK cell monolayers = assay: permeability in MDCK cell monolayers; format: in vitro ADME; conditions: in words
T cruzi = T cruzi infected mice, 20 mg/kg BID (ip) for 27 days; cited from earlier work
[5] = in vivo PK studies in mice; conditions: PO 40 mg/kg
[6] = tested on: intracellular T. cruzi in C2C12 host cells; assay: antitrypanosomal high-content imaging assay; format: cell-based

T1 sequence (P08684 whole entry): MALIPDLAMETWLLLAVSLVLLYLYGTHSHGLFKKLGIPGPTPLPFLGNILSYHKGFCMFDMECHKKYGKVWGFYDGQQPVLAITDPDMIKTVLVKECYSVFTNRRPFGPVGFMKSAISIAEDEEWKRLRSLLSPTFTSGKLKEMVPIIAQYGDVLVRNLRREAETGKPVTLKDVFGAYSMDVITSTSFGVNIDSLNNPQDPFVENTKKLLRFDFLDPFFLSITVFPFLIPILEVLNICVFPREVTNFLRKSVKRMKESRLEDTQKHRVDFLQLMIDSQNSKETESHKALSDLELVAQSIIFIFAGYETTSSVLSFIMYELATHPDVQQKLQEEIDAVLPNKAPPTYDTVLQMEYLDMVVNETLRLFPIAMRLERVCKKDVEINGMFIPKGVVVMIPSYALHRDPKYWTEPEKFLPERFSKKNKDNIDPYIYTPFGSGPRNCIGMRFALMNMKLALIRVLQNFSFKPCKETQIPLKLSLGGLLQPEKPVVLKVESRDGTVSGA

In the case of `CN1CCN(C(=O)N[C@@H](Cc2ccccc2)C(=O)N[C@H](/C=C/S(=O)(=O)c2ccccc2)CCc2ccccc2)CC1` [Compound 1, K777], the P-glycoprotein substrate (P-glycoprotein) is listed as “substrate for P-glycoprotein”, the dose-exposure pharmacokinetics [1] is listed as “nonlinear dose-exposure pharmacokinetics” and the oral bioavailability ([1]; species not stated) is listed as 5–20%. The cardiac tissue damage (Chagas' disease) was “partially protected animals from cardiac tissue damage”, the parasitemia (Chagas' disease) was “reduced parasitemia below levels detectable by hemocytometry” and the “CYP3A4 inhibition (in words)” value (CYP3A4 [2]) was “irreversibly inhibits CYP3A4; also recorded: low μM regime”.

For `CCCCC(C(=O)COc1c(F)c(F)cc(F)c1F)n1cc([C@@](C)(NCc2ccc3ncccc3c2)C(C)C)nn1` (stereo partly drawn) [Compound 4], the “CYP3A4 inhibition (in words)” value (CYP3A4 [3]) is given as “low μM regime”, the “stability to cultured liver microsomes” value [4] is given as “reasonable stability” and the “activity against T. cruzi parasites in two different cell-based assays” value (T. cruzi parasites) is given as “effective”. The “Permeability in an MDCK cell monolayer assay” value (MDCK cell monolayers) was “modest-to-low” and the “hematological cure (treated animals)” value (T cruzi) was 2/4.

For `CCCCC(C(=O)COc1c(F)c(F)cc(F)c1F)n1cc([C@@](C)(NCc2ccc3ncccc3c2)C2CCCC2)nn1` (stereo partly drawn) [Compound 8], the “Exposure following PO dosing relative to compound 4” value [5] was “two-fold higher”.

`CCCCC(C(=O)COc1c(F)c(F)cc(F)c1F)n1cc([C@@](C)(NCc2ccn3nccc3n2)C(C)C)nn1` (stereo partly drawn) [Compound 20] showed an IC50 ([6]; Trypanosoma cruzi, C2C12, read-out: T. cruzi IC50) of 10 nM.

For `CCCCC(C(=O)COc1c(F)c(F)cc(F)c1F)n1cc([C@@](C)(NCc2ccn3nccc3n2)C2CCCC2)nn1` (stereo partly drawn) [Compound 21], the “Exposure following PO dosing relative to compound 4” value [5] was “two-fold higher” and the “improvement of in vitro potency relative to 4” value ([6]; assay not specified) was ~ 10 fold.

Source: article PMC4737481 (Bioorganic & medicinal chemistry letters, 2015)
